Laboratory results published in patent US20110071163A1, “USE OF AN OPIOID RECEPTOR ANTAGONIST FOR THE TREATMENT OR PREVENTION OF GASTROINTESTINAL TRACT DISORDERS” (ADOLOR CORPORATION, priority 2009, published 2011).
“And” between values parts separate entries of the source, which are not always exact repeats. Equal values may be shown once. “Also recorded” adds a separate entry of the source. Read-outs that look alike come from different tables or passages of the source. Values belong to the compound of their own block, whether it stands above or below them.

What was measured:
[1] = Plasma protein binding (human); assay type: in vitro ADME; conditions: read-out: Plasma protein binding (% free drug)
[2] = 0.5 mg BID, patients with OIC or OBD, Phase 2 (Webster et al. 2008), cited from earlier work
[3] = system: opioid receptors in the central nervous system; experiment: Rat formalin test: reversal of morphine analgesia; assay type: in vivo; conditions: for Potency of naltrexone relative to Compound I in reversing the effects of morphine in the CNS: morphine 10 mg/kg s.c., naltrexone s.c., Compound I oral
Description: Rats were injected with the irritant formalin and with 10 mg/kg of morphine subcutaneously. The amount of analgesia was determined by the reduction in the number of times the rat licked or paid attention to the site of formalin injection (events). Rats were dosed either with 0.02 mg/kg naltrexone (subcutaneous dose) or 1, 3 or 10 mg/kg Compound I (oral dose) to determine the ability of the compounds to reverse the analgesic effect of morphine. […] The reversal of morphine-induced analgesia by opioid receptor antagonists in the formalin test is believed to be primarily a centrally-mediated effect.

[4] = Oral bioavailability in cynomologus monkey; conditions: in vivo, 0.1 mg/kg to 0.5 mg/kg
Source text: (§1) There are a number of approaches to determining the effective dose of Compound I for treating OIC or OBD. Four are outlined below. Depending on the approach, a number of basic assumptions were made in calculating the effective dose of Compound I for treating OIC or OBD: (i) The μ-opioid receptor is the primary target of Compound I to produce efficacy in the treatment of OIC or OBD, although other opioid receptors may also play a role. (ii) The systemic presence of Compound I in the periphery (but not in the CNS) is sufficient to produce robust efficacy in treating OIC or OBD. Thus, calculations were based on systemic plasma concentrations as opposed to possible topical or local effects in gut tissues, though these may also contribute to efficacy. (iii) The pharmacokinetic properties, specifically the oral bioavailability, of Compound I will be roughly similar in healthy volunteers and in patients with OIC or OBD.

[5] = Phase 1 oral pharmacokinetics of Compound I in healthy subjects; assay type: in vivo, human; conditions: for Mean free Cmax plasma level: 1 mg single oral dose, healthy subjects
Description: (§2) The first approach was a calculation based on comparison of pharmacokinetic and pharmacological data for the highly peripheralized opioid receptor antagonist alvimopan. […] Webster et al. (2008) Pain 137:428-440.
If there is a potential for a degree of drug accumulation upon repeated dosing regimens, the doses associated with efficacy for treating OIC or OBD may be appreciably lower than the doses calculated above, i.e., as low as 0.01 to 0.02 mg whole body dose QD or BID (for a human weighing approximately 70 kg).

[6] = system: P-glycoprotein (P-gp) transporter; experiment: Partitioning in plasma and brain of wild-type and P-glycoprotein knockout mice; assay type: in vivo
Description: Wild-type or P-glycoprotein (P-gp) knockout mice were dosed with 2.5 mg/kg of Compound I intravenously. The mice were sacrificed and the amounts of Compound I in the blood and in the brain were assayed using standard techniques. […] Moreover, blood-brain barrier penetration of Compound I increased 7- to 19-fold in knockout mice that were deficient in the P-gp transporter.

[7] = molecular target: T1, cloned human μ-opioid receptors (Homo sapiens, UniProt P35372); experiment: In vitro receptor binding in CHO cell membranes; conditions: CHO cell membranes expressing cloned human μ-opioid receptors
T1 construct: expressed in transfected cells; host or cells: CHO cells (membranes)

[8] = system: opioid receptors in the CNS; experiment: Phase 1 pharmacodynamic markers of central opioid receptor antagonism (morphine-induced miosis, ACTH, cortisol); assay type: in vivo, human; conditions: humans
Description: Determination of the lowest dose of Compound I that produces antagonism of opioid receptors in the CNS was addressed directly by examining the reported effect of Compound I on pharmacodynamic markers of central opioid receptor antagonism that were measured in the single and multiple dose Phase 1 clinical studies, i.e., the reversal of morphine-induced miosis (the effect on pupil diameter) and increases in adrenocorticotropic hormone (ACTH) and cortisol. The observed whole body dose of Compound I associated with a threshold reversal of morphine-induced miosis was 10 mg. Likewise, the observed whole body dose of Compound I associated with threshold increases in ACTH and cortisol was between 10 and 25 mg. A conservative estimate of the whole body dose for central opioid receptor antagonism was then determined by reducing these observed threshold doses by a half-log factor (i.e., 3-fold). Thus, the minimum doses of Compound I associated with pharmacologically relevant antagonism of opioid receptors in the CNS were conservatively estimated to be in the range of from about 3 mg to about 10 mg.

[9] = molecular target: T2, μ-opioid receptor (Homo sapiens, UniProt P35372); experiment: Calculated effective dose and pharmacokinetic model of Compound I for treating OIC or OBD; conditions: humans
T2 construct: expressed in transfected cells; host or cells: CHO cells (membranes)
Source text: as §1, §2
A second approach was a calculation based on the potency (Ki) of Compound I as an antagonist for the […] receptor.
A third approach was to generate a pharmacokinetic model for Compound I at low doses. This was accomplished by assuming a linear relationship between dose and all parameters of the plasma time course for the 1 mg dose of Compound I, and extrapolating these to lower doses.

[10] = Phase I multiple ascending dose clinical study in subjects with OIC; assay type: in vivo, human
Source text: The objective of the Phase I multiple ascending dose clinical study was to evaluate the safety, tolerability, pharmacokinetics, and clinical effect of multiple ascending doses of Compound I administered twice daily (BID) to subjects who have opioid induced constipation (OIC) as a result of chronic opioid therapy for persistent noncancer pain. The first part of the study was a randomized, double blind, placebo controlled, multiple ascending dose study during which subjects took 4 oral doses of study medication over 2 days while confined to the study unit. Each of the 0.10 mg, 0.25 mg, 0.35 mg, 0.50 mg […] BID dose cohorts included 4 subjects, and randomization was unbalanced, with a 3:1 ratio of Compound I treatment (n=3) to placebo treatment (n=1). The 0.75 mg BID cohort included only 2 subjects. Assessments of clinical effect included the following measures, which were assessed starting immediately after the first dose of study medication through discharge on day 3: (i) time to first bowel movement after the first dose of study medication; (ii) number of bowel movements; and (iii) bowel movement Comfort Scores, stool weight, and stool consistency as measured by the Bristol Stool Scale for each bowel movement that occurs while the subject was confined to the study unit.
For pharmacokinetic analyses, blood samples were collected from each subject on day 1 at approximately 1 hour before the first dose of study medication (time 0) and at each of the following times after the first dose of study medication: 15 min, 30 min, 60 min, 90 min, 2 h, 3 h, 4 h, 6 h, 8 h, 10 h, and 12 h. FIGS. 7A, 7B and 7C indicate the plasma levels of Compound I obtained after the first dose over the dosing interval of 12 h and for each of the 5 doses tested (0.10 mg, 0.25 mg, 0.35 mg, 0.50 mg and 0.75 mg BID).

[11] = system: opioid receptors; experiment: Reversal of morphine-induced inhibition of gastrointestinal transit of charcoal meal in mice; assay type: in vivo; conditions: Compound I oral dose
Description: Mice were either dosed with 10 μg/kg morphine intracerebroventricularly or with 1 mg/kg morphine subcutaneously. The degree of gastrointestinal transit of charcoal meal in the mice was measured in the absence of Compound I and in the presence of varying oral doses of Compound I in order to determine the ability of the compound to reverse the inhibition of gastrointestinal (GI) transit induced by morphine. The minimum effective dose of Compound I required to reverse GI transit inhibition in mice dosed with morphine directly into the CNS was determined to be about 3.0 mg/kg oral dose. (FIG. 2) In contrast, the effective dose of Compound I required to reverse GI transit inhibition in mice dosed with morphine systemically was determined to be about 0.16 mg/kg oral dose.

[12] = Oral bioavailability in rat; assay type: in vivo
[13] = Plasma protein binding (mouse); assay type: in vitro ADME; conditions: read-out: Plasma protein binding (% free drug)
[14] = 0.10 mg and 0.25 mg doses, preliminary

T2 sequence (P35372 whole entry): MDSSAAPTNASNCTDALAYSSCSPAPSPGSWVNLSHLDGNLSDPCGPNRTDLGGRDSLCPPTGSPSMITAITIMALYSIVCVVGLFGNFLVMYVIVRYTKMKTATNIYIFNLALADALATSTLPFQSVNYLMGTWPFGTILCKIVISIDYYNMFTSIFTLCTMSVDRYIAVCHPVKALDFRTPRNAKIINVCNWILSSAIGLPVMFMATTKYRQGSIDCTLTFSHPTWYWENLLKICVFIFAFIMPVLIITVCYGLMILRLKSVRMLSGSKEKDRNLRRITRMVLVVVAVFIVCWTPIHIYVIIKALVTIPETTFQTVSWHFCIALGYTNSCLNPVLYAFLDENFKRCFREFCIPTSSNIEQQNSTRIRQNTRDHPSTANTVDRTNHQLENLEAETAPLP
T1 sequence (P35372 whole entry): as above

- fraction unbound [1]: 0.203
SMILES: C[C@H]1CN(C[C@H](Cc2ccccc2)C(=O)NCC(=O)O)CC[C@@]1(C)c1cccc(O)c1 [Alvimopan, alvimopan]
- Mean free Cmax plasma level [2]: 0.1^1 ng/ml
- Mean free Cmax plasma level ([2]; listed as alvimopan): approximately 0.1 ng/ml

SMILES: O=C1CC[C@@]2(O)[C@H]3Cc4ccc(O)c5c4[C@@]2(CCN3CC2CC2)[C@H]1O5 [naltrexone]
- Potency of naltrexone relative to Compound I in reversing the effects of morphine in the CNS [3]: more than 100 times
- Potency of naltrexone relative to Compound I in reversing the effects of morphine in the CNS ([3]; listed as Naltrexone): approximately 100 times

- fraction unbound [1]: 0.738
- bioavailability [4]: ~100%
- Mean free Cmax plasma level ([5]; converted with MW 386.4 g/mol): 2.98 nM
- Mean free Cmax plasma level ([5]; free drug estimated with mouse plasma protein binding): 1.15 ng/ml and 1.15^2 ng/ml
- half-life ([5]; human, plasma, oral, humans, doses of 1-3 mg): ~12 h
- Oral pharmacokinetics versus dose ([5]; humans, dose range 1 mg to 100 mg): highly consistent and dose-proportional
- Compound I in blood plasma relative to brain ([6]; wild type mice, 2.5 mg/kg intravenously): 17 times
- Ki [7]: 0.36 nM
- Whole body dose effective in treating OIC or OBD without antagonizing CNS μ-opioid receptors (calculated) ([9]; QD or BID, multiple rationales): approximately 0.1 mg/day
- Whole body dose needed to achieve 0.36 nM of free drug (second approach) ([9]; linear extrapolation): 0.12 mg
- Dose needed to produce a free drug plasma Cmax of 0.1 ng/ml ([9]; linear extrapolation below 1 mg): 0.087 mg
- Oral bioavailability [12]: high oral bioavailability
- fraction unbound [13]: 0.64
SMILES: COc1cc(CNCCC2CCOCC2)ccc1Oc1cnc(C(N)=O)cn1 [Compound I, 5-(2-methoxy-4-{[2-(tetrahydro-pyran-4-yl)-ethylamino]-methyl}-phenoxy)-pyrazine-2-carboxamide]
- P-gp transport ([6]; concluded from knockout mice): substrate for the efflux transporter P-gp
- Whole body dose associated with threshold reversal of morphine-induced miosis [8]: 10 mg
- Times less potent than naltrexone as antagonist of opioid receptors in the central nervous system [3]: at least 100 times
- Amount effective for treating OIC or OBD confirmed in Phase I clinical studies [10]: approximately 0.1 mg/day
- Pharmacological effect [10, 14]: produced the desired pharmacological effects
- Tolerability [10, 14]: well-tolerated; also recorded: well tolerated
- Minimum effective dose to reverse GI transit inhibition ([11]; morphine 10 μg/kg intracerebroventricularly (direct CNS)): about 3.0 mg/kg
- Effective dose to reverse GI transit inhibition ([11]; morphine 1 mg/kg subcutaneously (systemic)): about 0.16 mg/kg
